Source: ChEMBL document CHEMBL1155598, “Microcyclamide, a cytotoxic cyclic hexapeptide from the cyanobacterium Microcystis aeruginosa” (J Nat Prod, 2000)
Values after ≈ are worked out from the molar mass of the structure shown.

Tested on: P388
Assay: Cytotoxicity against mouse P388 cells after 3 days by MTT assay
Type: functional, cell-based
Conditions: P388, 72 h

**Q.** How did the IC50 turn out when `CC[C@H](C)[C@@H]1NC(=O)c2nc(oc2C)[C@H](C)NC(=O)c2csc(n2)[C@H](Cc2cncn2C)NC(=O)c2csc1n2` [MICROCYCLAMIDE] was run?
**A.** 1.2 µg/mL (≈ 2.06 µM)
